The source of these data is ChEMBL document CHEMBL4428031, “Verbascoside Inhibits Promastigote Growth and Arginase Activity of Leishmania amazonensis” (J Nat Prod, 2016).

What is called Ki is a measure of affinity in units of concentration, obtained from inhibition or displacement. One may read the EC50 as the concentration that produces a half-maximal response.

One test has as its target Arginase (Leishmania amazonensis, UniProt O96394). Kind of test: Competitive inhibition of Leishmania amazonensis arginase assessed as inhibition constant for enzyme-inhibitor complex using L-arginine as substrate incubated for 15 mins by Dixon plot analysis.
A further test concerns Leishmania donovani. Kind of test: Antileishmanial activity against Leishmania donovani axenic amastigotes after 72 hrs by alamar blue assay. It is filed as functional, organism-based.
In test [1] the test system is Leishmania amazonensis. Kind of test: Antileishmanial activity against Leishmania amazonensis MHOM/BR/1973/M2269 promastigotes assessed as reduction in cell viability at 100 uM after 72 hrs by trypan blue dye based Neubauer chamber method. The format is functional, organism-based.
Test [2] relates to Leishmania amazonensis. Kind of test: Antileishmanial activity against Leishmania amazonensis MHOM/BR/1973/M2269 promastigotes assessed as reduction in cell viability incubated up to 72 hrs by trypan blue dye based Neubauer chamber method. As to conditions: MHOM/BR/1973/M2269, 72 h. The format is functional, organism-based.

The source made the active and inactive calls. The calls are words filed in the database; no cut-off is given here.

Consider `C[C@@H]1O[C@@H](O[C@@H]2[C@@H](O)[C@H](OCCc3ccc(O)c(O)c3)O[C@H](CO)[C@H]2OC(=O)/C=C/c2ccc(O)c(O)c2)[C@H](O)[C@H](O)[C@H]1O` [ACETOSIDE], for which the Ki on Arginase was found to be 0.7 µM. Besides, the EC50 with Leishmania donovani stood at 14 µM; in the test on Leishmania amazonensis [2] it was 19 µM. In the test with Leishmania amazonensis [1], the outcome was Active.
